Experimental data as given in ChEMBL document CHEMBL3132744, “Structureactivity relationship studies of miniproteins targeting the androgen receptorcoactivator interaction” (Medchemcomm, 2013).
Square brackets hold non-standard residues; d marks the D form. Peptide text beside a SMILES is read from it. Phe(4-Cl) = N[C@@H](Cc1ccc(Cl)cc1)C(=O)O; Cha = N[C@@H](CC1CCCCC1)C(=O)O

Target: T1, Androgen receptor (Homo sapiens, UniProt P10275)
T1 sequence (P10275 whole entry): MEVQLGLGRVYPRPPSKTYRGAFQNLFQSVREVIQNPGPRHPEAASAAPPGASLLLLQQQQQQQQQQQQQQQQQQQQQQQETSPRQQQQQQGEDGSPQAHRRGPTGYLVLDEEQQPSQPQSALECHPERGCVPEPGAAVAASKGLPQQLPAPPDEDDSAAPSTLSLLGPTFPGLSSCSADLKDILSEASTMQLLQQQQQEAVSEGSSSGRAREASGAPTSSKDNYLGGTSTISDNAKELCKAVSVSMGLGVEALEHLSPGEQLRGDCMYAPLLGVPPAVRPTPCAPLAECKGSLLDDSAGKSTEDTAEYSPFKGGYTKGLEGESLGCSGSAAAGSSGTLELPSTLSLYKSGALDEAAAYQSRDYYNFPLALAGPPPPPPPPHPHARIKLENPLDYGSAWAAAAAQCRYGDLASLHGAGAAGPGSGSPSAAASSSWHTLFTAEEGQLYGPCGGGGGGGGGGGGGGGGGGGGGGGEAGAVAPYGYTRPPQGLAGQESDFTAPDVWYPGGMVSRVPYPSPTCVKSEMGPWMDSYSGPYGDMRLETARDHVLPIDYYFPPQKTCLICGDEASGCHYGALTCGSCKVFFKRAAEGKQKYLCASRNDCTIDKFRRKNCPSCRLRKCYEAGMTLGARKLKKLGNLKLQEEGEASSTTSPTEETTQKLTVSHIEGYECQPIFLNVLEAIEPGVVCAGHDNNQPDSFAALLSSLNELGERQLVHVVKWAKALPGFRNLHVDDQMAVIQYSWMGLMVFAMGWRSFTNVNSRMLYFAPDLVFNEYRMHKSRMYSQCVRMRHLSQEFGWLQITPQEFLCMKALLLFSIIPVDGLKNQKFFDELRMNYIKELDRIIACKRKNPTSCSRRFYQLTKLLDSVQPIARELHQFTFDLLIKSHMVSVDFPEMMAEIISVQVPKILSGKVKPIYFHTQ
Assay: Displacement of fluorescein-CSSRFESLFAGEKESR from human androgen receptor-LBD after 1 hr by fluorescence polarization assay

Point of comparison: `CC[C@H](C)[C@H](NC(=O)[C@H](CS)NC(=O)[C@H](Cc1ccccc1)NC(=O)[C@H](CC(C)C)NC(=O)[C@H](CCC(=O)O)NC(=O)[C@H](CS)NC(=O)[C@H](Cc1ccc(Cl)cc1)NC(=O)[C@H](CCCNC(=N)N)NC(=O)[C@@H](N)CC(N)=O)C(=O)N[C@@H](CCC(N)=O)C(=O)NCC(=O)N[C@H](C(=O)NCC(=O)N[C@@H](CC(=O)O)C(=O)N[C@H](C(=O)N[C@@H](CCCCN)C(=O)N[C@@H](C)C(=O)N[C@@H](CS)C(=O)N[C@@H](CCC(=O)O)C(=O)N[C@@H](Cc1c[nH]c2ccccc12)C(=O)N[C@@H](C)C(=O)N[C@@H](CS)C(=O)N[C@@H](CCC(N)=O)C(=O)O)C(C)C)[C@@H](C)O` (H-NR[Phe(4-Cl)]CELFCIQGTGDVKACEWACQ-OH), Ki 2.3 µM. Against it:
- CC[C@H](C)[C@H](NC(=O)[C@H](CS)NC(=O)[C@H](Cc1ccccc1)NC(=O)[C@H](CC(C)C)NC(=O)[C@H](CCC(=O)O)NC(=O)[C@H](CS)NC(=O)[C@H](Cc1ccccc1)NC(=O)[C@H](CCCNC(=N)N)NC(=O)[C@@H](N)CC(N)=O)C(=O)N[C@@H](CCC(N)=O)C(=O)NCC(=O)N[C@H](C(=O)NCC(=O)N[C@@H](CC(=O)O)C(=O)N[C@H](C(=O)N[C@@H](CCCCN)C(=O)N[C@@H](C)C(=O)N[C@@H](CS)C(=O)N[C@@H](CCC(=O)O)C(=O)N[C@@H](Cc1c[nH]c2ccccc12)C(=O)N[C@@H](C)C(=O)N[C@@H](CS)C(=O)N[C@@H](CCC(N)=O)C(=O)O)C(C)C)[C@@H](C)O (H-NRFCELFCIQGTGDVKACEWACQ-OH) — 1.8-fold higher, 4.1 µM
- CC(C)C[C@H](NC(=O)[C@H](CS)NC(=O)[C@H](CC(N)=O)NC(=O)[C@H](Cc1ccc(Cl)cc1)NC(=O)[C@H](Cc1ccc(O)cc1)NC(=O)[C@H](CS)NC(=O)[C@H](C)N)C(=O)N[C@@H](Cc1ccccc1)C(=O)N[C@@H](CCC(=O)O)C(=O)NCC(=O)N[C@@H](CC(N)=O)C(=O)N[C@@H](CC(=O)O)C(=O)N[C@@H](CCC(=O)O)C(=O)N[C@@H](CCC(=O)O)C(=O)N[C@H](C(=O)N[C@@H](CS)C(=O)N[C@@H](CCCCN)C(=O)N[C@@H](CCC(=O)O)C(=O)N[C@@H](Cc1c[nH]c2ccccc12)C(=O)N[C@@H](CS)C(=O)O)[C@@H](C)O (H-ACY[Phe(4-Cl)]NCLFEGNDEETCKEWC-OH) — within 1.5-fold, 3 µM
- CC(C)C[C@H](NC(=O)[C@H](CS)NC(=O)[C@H](Cc1ccccc1)NC(=O)[C@H](Cc1ccccc1)NC(=O)[C@H](Cc1ccc(O)cc1)NC(=O)[C@H](CS)NC(=O)[C@H](C)N)C(=O)N[C@@H](Cc1ccccc1)C(=O)N[C@@H](CCC(=O)O)C(=O)NCC(=O)N[C@@H](CC(N)=O)C(=O)N[C@@H](CC(=O)O)C(=O)N[C@@H](CCC(=O)O)C(=O)N[C@@H](CCC(=O)O)C(=O)N[C@H](C(=O)N[C@@H](CS)C(=O)N[C@@H](CCCCN)C(=O)N[C@@H](CCC(=O)O)C(=O)N[C@@H](Cc1c[nH]c2ccccc12)C(=O)N[C@@H](CS)C(=O)O)[C@@H](C)O (H-ACYFFCLFEGNDEETCKEWC-OH) — 1.7-fold higher, 4 µM
- CC(C)C[C@H](NC(=O)[C@H](CS)NC(=O)[C@H](CC(N)=O)NC(=O)[C@H](Cc1ccccc1)NC(=O)[C@H](Cc1ccc(O)cc1)NC(=O)[C@H](CS)NC(=O)[C@H](C)N)C(=O)N[C@@H](CC1CCCCC1)C(=O)N[C@@H](CCC(=O)O)C(=O)NCC(=O)N[C@@H](CC(N)=O)C(=O)N[C@@H](CC(=O)O)C(=O)N[C@@H](CCC(=O)O)C(=O)N[C@@H](CCC(=O)O)C(=O)N[C@H](C(=O)N[C@@H](CS)C(=O)N[C@@H](CCCCN)C(=O)N[C@@H](CCC(=O)O)C(=O)N[C@@H](Cc1c[nH]c2ccccc12)C(=O)N[C@@H](CS)C(=O)O)[C@@H](C)O (H-ACYFNCL[Cha]EGNDEETCKEWC-OH) — the same, 2.3 µM
- CC[C@H](C)[C@H](NC(=O)[C@H](CS)NC(=O)[C@H](CC(C)C)NC(=O)[C@H](CC(C)C)NC(=O)[C@H](CCC(=O)O)NC(=O)[C@H](CS)NC(=O)[C@H](CC(C)C)NC(=O)[C@H](CCCNC(=N)N)NC(=O)[C@@H](N)CC(N)=O)C(=O)N[C@@H](CCC(N)=O)C(=O)NCC(=O)N[C@H](C(=O)NCC(=O)N[C@@H](CC(=O)O)C(=O)N[C@H](C(=O)N[C@@H](CCCCN)C(=O)N[C@@H](C)C(=O)N[C@@H](CS)C(=O)N[C@@H](CCC(=O)O)C(=O)N[C@@H](Cc1c[nH]c2ccccc12)C(=O)N[C@@H](C)C(=O)N[C@@H](CS)C(=O)N[C@@H](CCC(N)=O)C(=O)O)C(C)C)[C@@H](C)O (H-NRLCELLCIQGTGDVKACEWACQ-OH) — 5.7-fold higher, 13 µM
- CC(C)C[C@H](NC(=O)[C@H](CS)NC(=O)[C@H](CC(N)=O)NC(=O)[C@H](Cc1ccccc1)NC(=O)[C@H](Cc1ccc(O)cc1)NC(=O)[C@H](CS)NC(=O)[C@H](C)N)C(=O)N[C@@H](Cc1ccc(Cl)cc1)C(=O)N[C@@H](CCC(=O)O)C(=O)NCC(=O)N[C@@H](CC(N)=O)C(=O)N[C@@H](CC(=O)O)C(=O)N[C@@H](CCC(=O)O)C(=O)N[C@@H](CCC(=O)O)C(=O)N[C@H](C(=O)N[C@@H](CS)C(=O)N[C@@H](CCCCN)C(=O)N[C@@H](CCC(=O)O)C(=O)N[C@@H](Cc1c[nH]c2ccccc12)C(=O)N[C@@H](CS)C(=O)O)[C@@H](C)O (H-ACYFNCL[Phe(4-Cl)]EGNDEETCKEWC-OH) — 3.8-fold lower, 0.6 µM
- CC[C@H](C)[C@H](NC(=O)[C@H](CS)NC(=O)[C@H](Cc1ccccc1)NC(=O)[C@H](CC(C)C)NC(=O)[C@H](CCC(=O)O)NC(=O)[C@H](CS)NC(=O)[C@H](Cc1ccccc1)NC(=O)[C@H](CCCNC(=N)N)NC(=O)[C@@H](N)CO)C(=O)N[C@@H](CCC(N)=O)C(=O)NCC(=O)N[C@H](C(=O)NCC(=O)N[C@@H](CC(=O)O)C(=O)N[C@H](C(=O)N[C@@H](CCCCN)C(=O)N[C@@H](C)C(=O)N[C@@H](CS)C(=O)N[C@@H](CCC(=O)O)C(=O)N[C@@H](Cc1c[nH]c2ccccc12)C(=O)N[C@@H](C)C(=O)N[C@@H](CS)C(=O)N[C@@H](CCC(N)=O)C(=O)O)C(C)C)[C@@H](C)O (H-SRFCELFCIQGTGDVKACEWACQ-OH) — within 1.5-fold, 2.5 µM
- CC[C@H](C)[C@H](NC(=O)[C@H](CS)NC(=O)[C@H](Cc1ccccc1)NC(=O)[C@H](CC(C)C)NC(=O)[C@H](CCC(=O)O)NC(=O)[C@H](CS)NC(=O)[C@H](CC1CCCCC1)NC(=O)[C@H](CCCNC(=N)N)NC(=O)[C@@H](N)CC(N)=O)C(=O)N[C@@H](CCC(N)=O)C(=O)NCC(=O)N[C@H](C(=O)NCC(=O)N[C@@H](CC(=O)O)C(=O)N[C@H](C(=O)N[C@@H](CCCCN)C(=O)N[C@@H](C)C(=O)N[C@@H](CS)C(=O)N[C@@H](CCC(=O)O)C(=O)N[C@@H](Cc1c[nH]c2ccccc12)C(=O)N[C@@H](C)C(=O)N[C@@H](CS)C(=O)N[C@@H](CCC(N)=O)C(=O)O)C(C)C)[C@@H](C)O (H-NR[Cha]CELFCIQGTGDVKACEWACQ-OH) — 4.8-fold higher, 11 µM
- CC[C@H](C)[C@H](NC(=O)[C@H](CS)NC(=O)[C@H](Cc1ccc(Cl)cc1)NC(=O)[C@H](CC(C)C)NC(=O)[C@H](CCC(=O)O)NC(=O)[C@H](CS)NC(=O)[C@H](Cc1ccccc1)NC(=O)[C@H](CCCNC(=N)N)NC(=O)[C@@H](N)CC(N)=O)C(=O)N[C@@H](CCC(N)=O)C(=O)NCC(=O)N[C@H](C(=O)NCC(=O)N[C@@H](CC(=O)O)C(=O)N[C@H](C(=O)N[C@@H](CCCCN)C(=O)N[C@@H](C)C(=O)N[C@@H](CS)C(=O)N[C@@H](CCC(=O)O)C(=O)N[C@@H](Cc1c[nH]c2ccccc12)C(=O)N[C@@H](C)C(=O)N[C@@H](CS)C(=O)N[C@@H](CCC(N)=O)C(=O)O)C(C)C)[C@@H](C)O (H-NRFCEL[Phe(4-Cl)]CIQGTGDVKACEWACQ-OH) — 14-fold higher, 32 µM
